# Assay results reported in patent US7211573B2, “Malonamide derivatives” (Hoffmann-La Roche Inc., priority 2004, dated 2007).
row,Structure (SMILES),melting point [°C]
1,"Cc1cccc2c1OC[C@H](NC(=O)C(C)C(=O)NCC(F)(F)C(F)(F)F)C(=O)N2C (stereo partly drawn) [Example 10b, N-((S)-4,9-Dimethyl-8-oxo-6,7,8,9-tetrahydro-5-oxa-9-aza-benzocyclohepten-7-yl)-2-methyl-N′-(2,2,3,3,3-pentafluoro-propyl)-malonamide]",107
2,"CC(C(=O)NCC(F)(F)C(F)(F)F)C(=O)N[C@@H]1C(=O)Nc2cc(F)ccc2O[C@@H]1C (stereo partly drawn) [Example 23, N-((6R,7S)-2-Fluoro-6-methyl-8-oxo-6,7,8,9-tetrahydro-5-oxa-9-aza-benzocyclohepten-7-yl)-2-methyl-N′-(2,2,3,3,3-pentafluoro-propyl)-malonamide]",215 to 216

# Next, values leading:
row,melting point [°C],Structure (SMILES)
1,152,"CCN1C(=O)[C@@H](NC(=O)C(C)C(=O)NCC(F)(F)C(F)(F)F)COc2ccccc21 (stereo partly drawn) [Example 14, N-((S)-9-Ethyl-8-oxo-6,7,8,9-tetrahydro-5-oxa-9-aza-benzocyclohepten-7-yl)-2-methyl-N′-(2,2,3,3,3-pentafluoro-propyl)-malonamide]"
2,126 to 134,"CC(C(=O)NCC(F)(F)C(F)(F)F)C(=O)N[C@@H]1C(=O)N(C)c2c(F)cccc2O[C@@H]1C (stereo partly drawn) [Example 37, N-((6R,7S)-1-Fluoro-6,9-dimethyl-8-oxo-6,7,8,9-tetrahydro-5-oxa-9-aza-benzocyclohepten-7-yl)-2-methyl-N′-(2,2,3,3,3-pentafluoro-propyl)-malonamide]"
3,126 to 134,"CC(C(=O)NCC(F)(F)C(F)(F)F)C(=O)N[C@@H]1C(=O)N(C)c2cc(F)ccc2O[C@@H]1C (stereo partly drawn) [Example 38, N-((6R,7S)-2-Fluoro-6,9-dimethyl-8-oxo-6,7,8,9-tetrahydro-5-oxa-9-aza-benzocyclohepten-7-yl)-2-methyl-N′-(2,2,3,3,3-pentafluoro-propyl)-malonamide]"
4,148 to 150,"C[C@H](OC(=O)NCC(F)(F)C(F)(F)F)C(=O)N[C@@H]1C(=O)N(C)c2cc(F)ccc2O[C@@H]1C [Example 48, (2,2,3,3,3-Pentafluoro-propyl)-carbamic acid (S)-1-((6R,7S)-2-fluoro-6,9-dimethyl-8-oxo-6,7,8,9-tetrahydro-5-oxa-9-aza-benzocyclohepten-7-ylcarbamoyl)-ethyl ester]"
